Assay results from BindingDB's records for patent US9695131 (Bayer Pharma Aktiengesellschaft, 2017).
Several values for one entry are separate records, joined by “and”; a condition that tells them apart may be missing. Equal entries are not always repeated.

Each compound was assayed against T1, chymase (Golden hamster, UniProt A0A1U7QTH6) (assay: Enzymatic Chymase Assay). Settings: pH 7.5.
T1 sequence (A0A1U7QTH6 whole entry): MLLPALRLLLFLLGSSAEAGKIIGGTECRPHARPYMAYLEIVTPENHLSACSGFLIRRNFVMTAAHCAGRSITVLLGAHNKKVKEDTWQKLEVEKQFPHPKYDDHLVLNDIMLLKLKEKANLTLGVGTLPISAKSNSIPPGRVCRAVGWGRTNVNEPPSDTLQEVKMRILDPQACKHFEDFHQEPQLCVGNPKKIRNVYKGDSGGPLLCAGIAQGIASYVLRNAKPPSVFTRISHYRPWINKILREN

SMILES | IC50
Cc1c(Cn2c(=O)c(C(=O)NC(C)C(=O)O)cn(-c3ccc4c(c3)ncn4C)c2=O)cccc1C(F)(F)F (racemic) [US9695131, 57] | 19 nM
COc1ccc(-n2cc(-c3nnn[nH]3)c(=O)n(Cc3cccc(C(F)(F)F)c3C)c2=O)cc1OC [US9695131, 20] | 22 nM
COc1ccc(-n2cc(-c3nnn[nH]3)c(=O)n(Cc3cccc(Cl)c3Cl)c2=O)cc1 [US9695131, 27] | 130 nM
Cc1c(Cn2c(=O)c(C#N)cn(-c3ccc(N4CCOC4=O)cc3)c2=O)cccc1C(F)(F)F [US9695131, 5] | 29 nM
Cc1c(Cn2c(=O)c(C(=O)NC(CO)C(=O)O)cn(-c3ccc(N4CCNC4=O)cc3)c2=O)cccc1C(F)(F)F (centres undefined) [US9695131, 61] | 17 nM
Cc1c(Cn2c(=O)c(C(=O)NC(C)C(=O)O)cn(-c3ccc4c(c3)C(C)(C)C(=O)N4C)c2=O)cccc1C(F)(F)F (racemic) [US9695131, 47] | 4.2 nM
Cc1c(Cn2c(=O)c(C(=O)NCC#N)cn(-c3ccc(N4CCNC4=O)cc3)c2=O)cccc1C(F)(F)F [US9695131, 55] | 238 nM
Cn1c(=O)oc2cc(-n3cc(C(=O)NC#N)c(=O)n([C@@H]4CCc5c4cccc5C(F)(F)F)c3=O)ccc21 [US9695131, 63] | 2.6 nM
CCOC(=O)C(C)(C)NC(=O)c1cn(-c2ccc3c(c2)n(C)c(=O)n3C)c(=O)n(Cc2cccc(C(F)(F)F)c2C)c1=O [US9695131, 48] | 54 nM
COc1ccc(-n2cc(-c3nnn[nH]3)c(=O)n(Cc3cccc(C(F)(F)F)c3Cl)c2=O)cc1 [US9695131, 26] | 44 nM
Cn1c(=O)oc2cc(-n3cc(C#N)c(=O)n([C@@H]4CCc5c4cccc5C(F)(F)F)c3=O)ccc21 [US9695131, 2] | 18 nM
Cc1c(Cn2c(=O)c(C(=O)NC3(C(=O)O)CCC3)cn(-c3ccc4c(c3)n(C)c(=O)n4C)c2=O)cccc1C(F)(F)F [US9695131, 51] | 3 nM
COc1ccc(-n2cc(C#N)c(=O)n(Cc3cccc(C(F)(F)F)c3C)c2=O)cc1OC [US9695131, 9] | 35 nM
Cn1c(=O)sc2cc(-n3cc(-c4nnn[nH]4)c(=O)n([C@@H]4CCc5c4cccc5C(F)(F)F)c3=O)ccc21 [US9695131, 15] | 2.8 nM
Cc1c(Cn2c(=O)c(-c3noc(=O)[nH]3)cn(-c3ccc4c(c3)n(C)c(=O)n4C)c2=O)cccc1C(F)(F)F [US9695131, 33] | 4.9 nM
COc1ccc(-n2cc(-c3noc(=O)[nH]3)c(=O)n(Cc3cccc(C(F)(F)F)c3C)c2=O)cc1 [US9695131, 37] | 76 nM
Cc1c(Cn2c(=O)c(-c3nnn[nH]3)cn(-c3ccc(N4CCOC4=O)cc3)c2=O)cccc1C(F)(F)F [US9695131, 25] | 30 nM
COc1ccc(-n2cc(C(=O)NCCC(=O)O)c(=O)n(Cc3cccc(Cl)c3Cl)c2=O)cc1 [US9695131, 59] | 914 nM
COC(=O)C(COC(C)(C)C)NC(=O)c1cn(-c2ccc(N3CCNC3=O)cc2)c(=O)n(Cc2cccc(C(F)(F)F)c2C)c1=O (centres undefined) [US9695131, 60] | 1590 nM
Cn1c(=O)n(C)c2cc(-n3cc(-c4nnn[nH]4)c(=O)n(C4CCc5c(Cl)cccc54)c3=O)ccc21 (centres undefined) [US9695131, 18] | 4.6 nM and 2.8 nM
Cn1c(=O)n(C)c2cc(-n3cc(C#N)c(=O)n(C4CCc5c(Cl)cccc54)c3=O)ccc21 (racemic) [US9695131, 7] | 37 nM
Cc1c(C#N)c(=O)n([C@@H]2CCc3c2cccc3C(F)(F)F)c(=O)n1-c1ccc2c(c1)oc(=O)n2C [US9695131, 12] | 7.6 nM

SMILES | IC50
Cc1c(Cn2c(=O)c(C(N)=O)cn(-c3ccc(N4CCNC4=O)cc3)c2=O)cccc1C(F)(F)F [US9695131, 52] | 94 nM
Cn1c(=O)oc2cc(-n3cc(-c4nnn[nH]4)c(=O)n([C@@H]4CCc5c4cccc5C(F)(F)F)c3=O)ccc21 [US9695131, 14] | 3.5 nM
Cc1c(Cn2c(=O)c(-c3nsc(=O)[nH]3)cn(-c3ccc(N4CCOC4=O)cc3)c2=O)cccc1C(F)(F)F [US9695131, 39] | 16 nM
COc1ccc(-n2cc(-c3noc(=O)[nH]3)c(=O)n(Cc3cccc(C(F)(F)F)c3C)c2=O)cc1OC [US9695131, 36] | 19 nM
COC(=O)CCNC(=O)c1cn(-c2ccc(N3CCNC3=O)cc2)c(=O)n(Cc2cccc(C(F)(F)F)c2C)c1=O [US9695131, 53] | 180 nM
Cn1c(=O)sc2cc(-n3cc(C(N)=O)c(=O)n([C@@H]4CCc5c4cccc5C(F)(F)F)c3=O)ccc21 [US9695131, 42] | 9.8 nM
Cn1c(=O)sc2cc(-n3cc(-c4nnn[nH]4)c(=O)n(C4CCc5c(Cl)cccc54)c3=O)ccc21 (racemic) [US9695131, 23] | 7.3 nM
Cc1c(Cn2c(=O)c(C(=O)NC(C)C(=O)O)cn(-c3ccc(N4CCNC4=O)cc3)c2=O)cccc1C(F)(F)F (racemic) [US9695131, 45] | 25 nM
Cn1c(=O)sc2cc(-n3cc(C#N)c(=O)n(C4CCc5c(Cl)cccc54)c3=O)ccc21 (racemic) [US9695131, 8] | 53 nM
Cn1c(=O)oc2cc(-n3cc(C(N)=O)c(=O)n([C@@H]4CCc5c4cccc5C(F)(F)F)c3=O)ccc21 [US9695131, 41] | 12 nM
Cc1c(Cn2c(=O)c(C#N)cn(-c3ccc4c(c3)n(C)c(=O)n4C)c2=O)cccc1C(F)(F)F [US9695131, 6] | 6.6 nM
Cn1c(=O)sc2cc(-n3cc(C#N)c(=O)n([C@@H]4CCc5c4cccc5C(F)(F)F)c3=O)ccc21 [US9695131, 3] | 8.7 nM
COc1ccc(-n2cc(-c3nsc(=O)[nH]3)c(=O)n(Cc3cccc(C(F)(F)F)c3C)c2=O)cc1OC [US9695131, 40] | 12 nM
CCOC(=O)C1(NC(=O)c2cn(-c3ccc4c(c3)n(C)c(=O)n4C)c(=O)n(Cc3cccc(C(F)(F)F)c3C)c2=O)CCC1 [US9695131, 50] | 39 nM
Cn1c(=O)oc2cc(-n3cc(-c4nnn[nH]4)c(=O)n(C4CCCc5c(Cl)cccc54)c3=O)ccc21 (racemic) [US9695131, 30] | 13 nM
Cc1c(Cn2c(=O)c(-c3nnn[nH]3)cn(-c3ccc(N4CCNC4=O)cc3)c2=O)cccc1C(F)(F)F [US9695131, 21] | 32 nM
Cc1c(Cn2c(=O)c(C(=O)NC(C)(C)C(=O)O)cn(-c3ccc4c(c3)n(C)c(=O)n4C)c2=O)cccc1C(F)(F)F [US9695131, 49] | 3.6 nM
Cc1c(Cn2c(=O)c(-c3noc(=O)[nH]3)cn(-c3ccc(N4CCNC4=O)cc3)c2=O)cccc1C(F)(F)F [US9695131, 34] | 55 nM
Cc1c(Cn2c(=O)c(C#N)cn(-c3ccc(N4CCNC4=O)cc3)c2=O)cccc1C(F)(F)F [US9695131, 4] | 48 nM
Cc1c(Cn2c(=O)c(-c3nnn[nH]3)cn(-c3ccc4c(c3)n(C)c(=O)n4C)c2=O)cccc1C(F)(F)F [US9695131, 19] | 5.8 nM
Cc1c(Cn2c(=O)c(-c3noc(=O)[nH]3)cn(-c3ccc(N4CCOC4=O)cc3)c2=O)cccc1C(F)(F)F [US9695131, 35] | 36 nM
Cn1c(=O)oc2cc(-n3cc(-c4noc(=O)[nH]4)c(=O)n([C@@H]4CCc5c4cccc5C(F)(F)F)c3=O)ccc21 [US9695131, 38] | 8.1 nM
